Patent US10206921B2, “Methods and compositions for treating a subject for central nervous system (CNS) injury” (THE REGENTS OF THE UNIVERSITY OF CALIFORNIA, priority 2009, dated 2019)
Entries after “also recorded” stand apart in the source; their conditions may differ.

Experiments:
α5GABAA receptor = biological target: T1, α5GABAA receptor (Mus musculus, UniProt P22723+Q8BHJ7); experiment: Whole-cell patch-clamp of tonic inhibition (Itonic) in brain slices with L655,708; format: cell-based
T1 construct: Whole-cell patch-clamp recordings were made from post-stroke brain slices; from tissue; host or cells: brain slices, peri-infarct motor cortex, layer 2/3 pyramidal neurons
Description: (§1) Whole-cell patch-clamp recordings were made from post-stroke brain slices, within 200 μm of infarct (top left), from layer-2/3 (top right) pyramidal neurons (bottom panels) (FIG. 1A). Cells were voltage-clamped at +10 mV. […] FIGS. 1C and D show representative traces showing the tonic inhibitory currents in control and peri-infarct neurons, respectively.
(§2) Itonic remained elevated from 3- to 14-days post-stroke.
(§3) In post-stroke neurons, co-application only produced an effect (110.7±32.0%, n=5) similar to GAT-1 blockade alone (P<0.68; FIG. 2A), indicating a dysfunction in GAT-3/4 after stroke.

mice after stroke [1] = experiment: Grid-walking task after stroke in forelimb motor cortex; format: in vivo, mouse; settings: subcutaneous osmotic minipump from 3 days after stroke
Description: Stroke completely destroys the tissue in at the center of the stroke (the core) and partially damages the tissue adjacent to the infarct (Katsman D, Spinelli K, Zhang J, and Carmichael S T (2003) Tissue microenvironments within functional cortical subdivisions adjacent to focal stroke. J Cereb Blood Flow Met 23:997-1009; Carmichael S T, Archibeque I, Luke L, Nolan T, Momiy J, Li S. (2005) Growth-Associated Gene Expression after Stroke: Evidence for a growth-promoting region in peri-infarct cortex. Expt Neurol. 193:291-311), i.e., the peri-infarct region. Studies indicate that this peri-infarct region is disabled through partial damage to neuronal circuits, as described above. To model this process experimentally, a stroke model was used that produces complete damage to a part of the brain that controls forelimb use in a mouse, the forelimb motor cortex (FIGS. 5A-5B). […] The stroke destroys part of the forelimb motor cortex. The vertical line indicates site of tissue sections in the middle panel. […] The stroke damage is restricted to the cortex, with partial damage in adjacent white mater and surrounding motor areas. […] Measures of fore- and hindlimb behaviors in this model of stroke thus provide a readout of the function of partially damaged brain areas near the stroke core. […]

mice after stroke [2] = experiment: Cylinder task (spontaneous forelimb use when rearing) after stroke; format: in vivo, mouse; settings: for gain of function post-stroke on the cylinder task: 7 to 42 days post-stroke
Description: Stroke completely destroys the tissue in at the center of the stroke (the core) and partially damages the tissue adjacent to the infarct (Katsman D, Spinelli K, Zhang J, and Carmichael S T (2003) Tissue microenvironments within functional cortical subdivisions adjacent to focal stroke. J Cereb Blood Flow Met 23:997-1009; Carmichael S T, Archibeque I, Luke L, Nolan T, Momiy J, Li S. (2005) Growth-Associated Gene Expression after Stroke: Evidence for a growth-promoting region in peri-infarct cortex. Expt Neurol. 193:291-311), i.e., the peri-infarct region. Studies indicate that this peri-infarct region is disabled through partial damage to neuronal circuits, as described above. To model this process experimentally, a stroke model was used that produces complete damage to a part of the brain that controls forelimb use in a mouse, the forelimb motor cortex (FIGS. 5A-5B). […] The stroke destroys part of the forelimb motor cortex. The vertical line indicates site of tissue sections in the middle panel. […] The stroke damage is restricted to the cortex, with partial damage in adjacent white mater and surrounding motor areas. This damage is seen as increased staining for GFAP (reactive astrocytes, arrows) and increased cellularity in Nissl stains (arrows). This stroke knocks out part of the forelimb motor cortex and causes partial damage to the rest of forelimb cortex and to hindlimb motor cortex. This disables fore- and hindlimb control and produces weakness in using these limbs for walking and for exploratory forelimb behaviors, (such as using the forelimb when rearing onto objects, FIGS. 6A-6C). Measures of fore- and hindlimb behaviors in this model of stroke thus provide a readout of the function of partially damaged brain areas near the stroke core.
Treatments that must be administered very early in the clinical course of stroke, such as tPA, are difficult to deliver because most patients are not in the hospital and so rapid emergency response and laboratory screening systems must be developed. […]

mice after stroke [3] = experiment: Behavioral/functional recovery after stroke (grid-walking and cylinder tasks together); format: in vivo, mouse
Protocol: The GABAaα5 inverse agonist L655,708 was administered through subcutaneously implanted osmotic minipumps. Mice were tested fore- and hindlimb function before, and then at one, two, four and six weeks after stroke.
FIGS. 9A-9C illustrate behavioral recovery after stroke in young and aged animals with L655,708. […] Functional recovery was assessed behaviorally on both the gridwalking task for forelimb footfaults (FIG. 9A) and hindlimb footfaults (FIG. 9B), and on the cylinder task for forelimb asymmetry (FIG. 9C). […] On average the normal gain of function in the aged stroke+vehicle treated animals is less than that of the young stroke+vehicle treated animals. In addition, the aged stroke+L655,708 animals show slightly less improvement compared to young stroke+L655,708 animals. For instance, on the cylinder task young stroke+L655,708 animals show a 15-18% gain of function post-stroke (7 to 42-days), compared with a 13-16% gain of function post-stroke in the aged. Data is shown as mean±s.e.m. for n=8 per group for L655,708 treatment for both young and aged animals, ***=P≤0.001 for stroke+vehicle vs Sham; +=P≤0.05, ++=P≤0.001 aged stroke+L655,708 vs aged stroke+vehicle, ##=P≤0.01, #=P≤0.001 young stroke+L655,708 vs young stroke+vehicle.
Functional recovery was assessed behaviorally on both the gridwalking task for forelimb footfaults (FIG. 10A), hindlimb footfaults (FIG. 10B), and on the cylinder task for forelimb asymmetry (FIG. 10C). Data are shown as mean±s.e.m. for n=8 per group, ***=P≤0.001 for stroke+vehicle vs. Sham; ##=P≤0.01, #=P≤0.001 vs. stroke+vehicle.
Two different durations of treatment were used (2 weeks and 6 weeks after stroke. Because stroke is a disease of aging, and the clinical target of stroke is most commonly aged patients, L655,708 was tested in aged animals after stroke. At the end of behavioral testing (6 weeks after stroke) mice received mapping of the pattern of cortical connections in the motor system in peri-infarct cortex (Overman J J, Kalaria S, Overman B, Willis D, Twiss J, Wanner I B, Li S, Carmichael S T (2008) Post-stroke blockade of ephrinA5 increases axonal sprouting in the mouse somatosensory cortex. Soc Neurosci. Abst.). Axonal sprouting in this pen-infarct cortex is closely associated with functional recovery in stroke (Carmichael, '06). Therapies directed toward neural repair after stroke promote the formation of new connections in peri-infarct cortex (Overman et al., '08).
To define the total role of GABAA α5 and δ receptors in functional recovery after stroke, behavioral testing was performed on Gabra5^−/− and Gabrd^−/− mice (FIGS. 8A-8C). For both α5 and δ knockouts, the same experimental approach was utilized. Mice were tested for e- and hindlimb function before stroke. […]

[4] = biological target: T2, GABA transporters (GATs): GAT-1, GAT-3/4 (Mus musculus, UniProt P31648); experiment: Whole-cell patch-clamp of tonic inhibition (Itonic) in brain slices after GAT blockade; format: cell-based; settings: NO-711 10 μM
T2 construct: Whole-cell patch-clamp recordings were made from post-stroke brain slices; from tissue; host or cells: brain slices, peri-infarct motor cortex, recordings from layer 2/3 pyramidal neurons
Description: as §1, §2, §3

GABAARs = experiment: GABAAR saturation test: GABA raised in ACSF after blocking both GATs; format: cell-based, mouse; settings: GABA +10 μM in ACSF after 10 μM NO-711+40 μM SNAP-5114; control slices; n=3
Description: Whole-cell patch-clamp recordings were made from post-stroke brain slices, within 200 μm of infarct (top left), from layer-2/3 (top right) pyramidal neurons (bottom panels) (FIG. 1A). Cells were voltage-clamped at +10 mV.

T1 sequence (Q8BHJ7 32-463 limits assumed): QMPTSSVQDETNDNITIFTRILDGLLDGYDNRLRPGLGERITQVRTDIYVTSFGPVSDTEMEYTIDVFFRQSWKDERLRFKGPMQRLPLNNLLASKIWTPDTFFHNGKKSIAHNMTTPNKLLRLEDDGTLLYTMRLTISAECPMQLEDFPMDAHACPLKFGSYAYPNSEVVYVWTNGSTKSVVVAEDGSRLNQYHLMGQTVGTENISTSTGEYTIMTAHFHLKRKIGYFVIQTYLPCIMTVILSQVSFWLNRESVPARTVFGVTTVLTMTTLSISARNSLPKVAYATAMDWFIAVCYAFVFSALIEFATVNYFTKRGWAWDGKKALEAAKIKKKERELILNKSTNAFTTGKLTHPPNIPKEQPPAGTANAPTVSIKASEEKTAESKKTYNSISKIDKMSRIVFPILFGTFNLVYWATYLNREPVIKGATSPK
T1 sequence (P22723 39-474): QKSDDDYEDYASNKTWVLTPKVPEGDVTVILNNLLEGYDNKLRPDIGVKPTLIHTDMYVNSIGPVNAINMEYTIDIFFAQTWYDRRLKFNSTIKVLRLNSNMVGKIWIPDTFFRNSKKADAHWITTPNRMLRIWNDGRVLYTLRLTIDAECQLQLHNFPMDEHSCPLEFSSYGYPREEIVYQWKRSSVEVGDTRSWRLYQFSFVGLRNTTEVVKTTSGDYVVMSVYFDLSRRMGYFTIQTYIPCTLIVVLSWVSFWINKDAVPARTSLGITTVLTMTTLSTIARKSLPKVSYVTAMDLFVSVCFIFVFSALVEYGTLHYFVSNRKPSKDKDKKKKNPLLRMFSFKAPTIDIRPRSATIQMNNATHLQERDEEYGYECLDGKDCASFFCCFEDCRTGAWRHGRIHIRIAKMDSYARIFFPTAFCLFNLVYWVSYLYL
T1 sequence (P63080 26-473 partner): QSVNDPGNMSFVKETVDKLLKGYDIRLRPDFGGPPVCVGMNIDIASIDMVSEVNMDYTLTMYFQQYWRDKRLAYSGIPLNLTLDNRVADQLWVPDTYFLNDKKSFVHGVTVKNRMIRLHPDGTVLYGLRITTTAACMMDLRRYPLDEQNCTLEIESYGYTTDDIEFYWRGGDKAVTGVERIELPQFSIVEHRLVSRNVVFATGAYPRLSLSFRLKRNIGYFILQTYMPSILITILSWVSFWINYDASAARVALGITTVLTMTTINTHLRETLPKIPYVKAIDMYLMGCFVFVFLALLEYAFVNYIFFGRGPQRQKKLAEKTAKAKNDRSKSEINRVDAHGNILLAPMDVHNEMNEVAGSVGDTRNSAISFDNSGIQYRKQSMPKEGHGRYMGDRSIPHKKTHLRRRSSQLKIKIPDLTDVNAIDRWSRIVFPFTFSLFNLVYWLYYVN

## CCOC(=O)c1ncn2c1[C@@H]1CCCN1C(=O)c1cc(OC)ccc1-2 [L655,708]
α5GABAA receptor; 100 nM, representative recording (FIG. 2D)
  effect on Itonic: reduced Itonic
α5GABAA receptor; post-stroke neurons, P<0.05 (FIG. 2F)
  effect on post-stroke Itonic: significantly decreased post-stroke Itonic, and notably reverted Itonic to near-control level
Mice after stroke [1]; FIG. 6B
  hindlimb function in the grid-walking task: statistically significant improvement by the 42 day testing period
Mice after stroke [1]; approx. 200 or 400 μg/kg/day, FIG. 6A
  forelimb function in the grid-walking task: enhanced forelimb use
Mice after stroke [2]; aged stroke animals
  gain of function post-stroke on the cylinder task: 13-16%
Mice after stroke [2]; subcutaneous osmotic minipump from 3 days after stroke, 7 day post-stroke test period, FIG. 6C
  forelimb function in the cylinder task: recovered right forelimb use very quickly
Mice after stroke [2]; young stroke animals
  gain of function post-stroke on the cylinder task: 15-18%
Mice after stroke [3]; 2-week and 6-week treatment, 6-week the most significant recovery
  behavioral recovery after stroke, dosing duration: produces behavioral recovery
Mice after stroke [3]; L655,708 given to GABAA receptor δ subunit null mutant mice
  functional recovery after stroke in Gabrd−/− mice: additive effect on functional recovery; also recorded: further functional recovery
Mice after stroke [3]; treatment from 3 days after stroke, young and aged animals, FIGS. 9A-9C
  functional recovery after stroke: increase in functional recovery in both young and aged animals
Mice after stroke [3]; young adult and aged mice, low and high dose
  behavioral recovery after stroke, dose dependence: promotes behavioral recovery after stroke in a dose-dependent manner

## O=C(O)C1=CCCN(CCON=C(c2ccccc2)c2ccccc2)C1 [NO-711]
[4]; control neurons, n=6
  % Itonic increase after GAT blockade: 34.3±11.4%
[4]; post-stroke neurons, n=10
  % Itonic increase after GAT blockade: 94.0±16.3%

## NCCCC(=O)O [GABA, gamma aminobutyric acid]
GABAARs
  percent increase in Itonic: 25.7±15.0%
